Assay results published in ChEMBL document CHEMBL6071200, “Discovery of Ring-Annulated Analogues of Cannabidiol as Potential Anticancer Agents: Synthesis and Biological Evaluation” (ACS Med Chem Lett, 2024).
Active and inactive are the calls of the source. No cut-off for these calls is given here.

Key:
HCT-116 [1] = assay: Cytotoxicity against human HCT-116 cells assessed as inhibition of cell growth at 20 uM incubated for 48 hrs by SRB assay relative to control; assay type: functional
MCF7 [2] = assay: Cytotoxicity against human MCF7 cells assessed as inhibition of cell growth at 20 uM incubated for 48 hrs by SRB assay relative to control; assay type: functional
HCT-116 [3] = assay: Cytotoxicity against human HCT-116 cells assessed as inhibition of cell growth incubated for 48 hrs by SRB assay; assay type: functional, cell-based; details: HCT-116, 48 h
MCF7 [4] = assay: Cytotoxicity against human MCF7 cells assessed as inhibition of cell growth incubated for 48 hrs by SRB assay; assay type: functional, cell-based; details: MCF7, 48 h
[5] = Cytotoxicity against human HEK293 cells assessed as inhibition of cell growth incubated for 48 hrs by SRB assay; assay type: toxicity, cell-based
[6] = Selectivity index, ratio of IC50 for HEK293 cells to IC50 for human HCT-116 cells; assay type: toxicity; details: HEK293 cells versus HCT-116 cells, read-out: Ratio IC50
[7] = Selectivity index, ratio of IC50 for HEK293 cells to IC50 for human MCF7 cells; assay type: toxicity; details: HEK293 cells versus MCF7 cells, read-out: Ratio IC50
MCF7 [8] = assay: Induction of apoptosis in human MCF7 cells assessed as viable cells at 14.65 uM incubated for 24 hrs by Annexin V-FITC/PI staining based flow cytometric analysis (reference value: 88.20 %); assay type: functional; details: read-out: Activity
MCF7 [9] = assay: Induction of apoptosis in human MCF7 cells assessed as early apoptotic cells at 14.65 uM incubated for 24 hrs by Annexin V-FITC/PI staining based flow cytometric analysis (reference value: 2.93 %); assay type: functional
MCF7 [10] = assay: Induction of apoptosis in human MCF7 cells assessed as late apoptotic cells at 14.65 uM incubated for 24 hrs by Annexin V-FITC/PI staining based flow cytometric analysis (reference value: 4.85 %); assay type: functional
MCF7 [11] = assay: Induction of apoptosis in human MCF7 cells assessed as necrotic cells at 14.65 uM incubated for 24 hrs by Annexin V-FITC/PI staining based flow cytometric analysis (reference value: 4.02 %); assay type: functional
MCF7 [12] = assay: Inhibition of colony formation in human MCF7 cells assessed as reduction in number of colonies at subtoxic doses measured after 48 hrs by crystal violet staining based analysis; assay type: functional, cell-based
MCF7 [13] = assay: Induction of ROS production in human MCF7 cells assessed as DCFDA intensity at 14.6 uM incubated for 24 hrs by flow cytometric analysis (reference value: 0.95 %); assay type: functional
MCF7 [14] = assay: Induction of mitochondrial membrane loss in human MCF7 cells assessed as fold change at 14.6 uM incubated for 24 hrs by Mitotracker dye based flow cytometric analysis relative to control; assay type: functional
MCF7 [15] = assay: Cell cycle arrest in human MCF7 cells assessed as accumulation of cells at G1 phase at 14.65 uM incubated for 24 hrs by PI staining based flow cytometric analysis (reference value: 63.9 %); assay type: functional
MCF7 [16] = assay: Cell cycle arrest in human MCF7 cells assessed as accumulation of cells at S phase at 14.65 uM incubated for 24 hrs by PI staining based flow cytometric analysis (reference value: 22.93 %); assay type: functional
MCF7 [17] = assay: Cell cycle arrest in human MCF7 cells assessed as accumulation of cells at G2/M phase at 14.65 uM incubated for 24 hrs by PI staining based flow cytometric analysis (reference value: 13.7 %); assay type: functional
MCF7 [18] = assay: Anticancer activity against human MCF7 cells assessed as reduction in cell viability at 14.65 uM incubated for 48 hrs by SRB assay relative to control; assay type: functional
MCF7 [19] = assay: Anticancer activity against human MCF7 cells assessed as reduction in cell viability at 14.65 uM preincubated with LY320135 for 1 hrs followed by compound addition and measured after 48 hrs by SRB assay; assay type: functional, cell-based
MCF7 [20] = assay: Anticancer activity against human MCF7 cells assessed as reduction in cell viability at 14.65 uM preincubated with SR144528 for 1 hrs followed by compound addition and measured after 48 hrs by SRB assay; assay type: functional, cell-based
MCF7 [21] = assay: Anticancer activity against human MCF7 cells assessed as reduction in cell viability at 14.65 uM preincubated with ML-193 for 1 hrs followed by compound addition and measured after 48 hrs by SRB assay; assay type: functional, cell-based
MCF7 [22] = assay: Anticancer activity against human MCF7 cells assessed as reduction in cell viability at 14.65 uM preincubated with capsazepine for 1 hrs followed by compound addition and measured after 48 hrs by SRB assay; assay type: functional, cell-based
MCF7 [23] = assay: Anticancer activity against human MCF7 cells assessed as reduction in cell viability at 14.65 uM preincubated with GW9662 for 1 hrs followed by compound addition and measured after 48 hrs by SRB assay; assay type: functional, cell-based
[24] = Metabolic stability in human liver microsomes assessed as parent compound remaining measured after 30 mins; assay type: ADME, Microsome; details: read-out: Stability
CYP450 = CYP450 (Homo sapiens, UniProt P04798+P05177+P05181+P08684+P10632+P10635+P11509+P11712+P13584+P20813+P20815+P20853+P24462+P24903+P33260+P33261+P51589+P78329+P98187+Q02928+Q08477+Q16678+Q16696+Q5TCH4+Q6VVX0+Q7Z449+Q8TAV3+Q96SQ9+Q9HB55); assay: Inhibition of CYP450 in human liver microsomes at <1 uM by cocktail-mixture based assay relative to control; assay type: ADME, Microsome; design: dose or concentration left out as unconfirmed; details: probe cocktail mixture
[25] = Anticancer activity against KiMol cells (unknown origin); assay type: functional, cell-based; details: KiMol cell
AGS = assay: Anticancer activity against human AGS cells; assay type: functional, cell-based
A549 = assay: Anticancer activity against human A549 cells; assay type: functional, cell-based
NCI-H460 = assay: Anticancer activity against human NCI-H460 cells; assay type: functional, cell-based
EL4 = assay: Anticancer activity against mouse EL4 cells; assay type: functional, cell-based
[26] = Anticancer activity against mouse Thymocyte; assay type: toxicity, cell-based; details: thymocytes
C6 = assay: Anticancer activity against rat C6 cells; assay type: functional, cell-based
SF-126 = assay: Anticancer activity against human SF-126 cells; assay type: functional, cell-based
T98 = assay: Anticancer activity against human T98 cells; assay type: functional, cell-based
[27] = Anticancer activity against human MZC cells; assay type: functional, cell-based
[28] = Anticancer activity against mouse GL261 cells; assay type: functional, cell-based
MCF7 [29] = assay: Anticancer activity against human MCF7 cells; assay type: functional, cell-based
MDA-MB-231 = assay: Anticancer activity against human MDA-MB-231 cells; assay type: functional, cell-based
T47D = assay: Anticancer activity against human T47D cells; assay type: functional, cell-based
RBL-2H3 = assay: Anticancer activity against rat RBL-2H3 cells; assay type: functional, cell-based
CCRF-CEM = assay: Anticancer activity against human CEM cells; assay type: functional, cell-based
HL-60 = assay: Anticancer activity against human HL-60 cells; assay type: functional, cell-based
DU-145 = assay: Anticancer activity against human DU-145 cells; assay type: functional, cell-based
LNCaP = assay: Anticancer activity against human LNCaP cells; assay type: functional, cell-based
SW480 = assay: Anticancer activity against human SW480 cells; assay type: functional, cell-based
Caco-2 = assay: Anticancer activity against human Caco-2 cells; assay type: functional, cell-based

Which inhibition at 20 µM (HCT-116 [1]) does the source give for `C=C(C)[C@@H]1CCC(C)=C[C@H]1c1c(O)cc(CCCCC)cc1O` [CANNABIDIOL] here?
Its inhibition at 20 µM is 77.3%.

And the inhibition at 20 µM (MCF7 [2])?
The inhibition at 20 µM was 59.1%.

What about the IC50 (HCT-116 [3]) of the same molecule?
The IC50 was 9.8 µM.

And the IC50 (MCF7 [4])?
Its IC50 is 14.6 µM.

What about the IC50 at 48 h [5] of the same molecule?
The IC50 at 48 h was 95.2 µM.

What about the selectivity ratio [6] of the same molecule?
Its selectivity ratio is 9.7.

What about the selectivity ratio [7] of the same molecule?
Its selectivity ratio is 6.5.

What about the viability at 14.65 µM (MCF7 [8]) of the same molecule?
The viability at 14.65 µM was 81.1%.

What about the Activity (MCF7 [9]) of the same molecule?
Its Activity is 6.33%.

And the Activity (MCF7 [10])?
The Activity was 10.14%.

And the Activity (MCF7 [11])?
Its Activity is 2.38%.

And the inhibition (MCF7 [12])?
Its inhibition is “Active”.

And the Activity (MCF7 [13])?
Its Activity is 15.11%.

What about the “fold change (FC)” value (MCF7 [14]) of the same molecule?
The value was 3.4.

And the Activity (MCF7 [15])?
The Activity was 75.12%.

What about the Activity (MCF7 [16]) of the same molecule?
The Activity was 6.84%.

And the Activity (MCF7 [17])?
Its Activity is 18.04%.

And the Activity (MCF7 [18])?
The Activity was 52.46%.

What about the Activity (MCF7 [19]) of the same molecule?
Its Activity is “Active”.

What about the Activity (MCF7 [20]) of the same molecule?
The Activity was “Active”.

What about the Activity (MCF7 [21]) of the same molecule?
Its Activity is “Active”.

What about the Activity (MCF7 [22]) of the same molecule?
The Activity was “Active”.

And the Activity (MCF7 [23])?
The Activity was “Active”.

What about the remaining at 0.5 h [24] of the same molecule?
Its remaining at 0.5 h is 17%.

And the inhibition (CYP450)?
The inhibition was > 50%.

And the IC50 [25]?
The IC50 was 6 µM.

What about the IC50 (AGS) of the same molecule?
Its IC50 is 7.5 µM.

And the IC50 (A549)?
The IC50 was 2.8 µM.

And the IC50 (NCI-H460)?
The IC50 was 2.8 µM.

What about the IC50 (EL4) of the same molecule?
Its IC50 is 7.01 µM.

What about the IC50 [26] of the same molecule?
The IC50 was 7.01 µM.

What about the IC50 (C6) of the same molecule?
The IC50 was 1.2 µM.

What about the IC50 (SF-126) of the same molecule?
The IC50 was 1.2 µM.

What about the IC50 (T98) of the same molecule?
The IC50 was 1.2 µM.

And the IC50 [27]?
The IC50 was 1.2 µM.

And the IC50 [28]?
Its IC50 is 1.2 µM.

What about the IC50 (MCF7 [29]) of the same molecule?
Its IC50 is 1.3 µM.

And the IC50 (MDA-MB-231)?
The IC50 was 1.3 µM.

What about the IC50 (T47D) of the same molecule?
Its IC50 is 1.3 µM.

And the IC50 (RBL-2H3)?
Its IC50 is 6.3 µM.

And the IC50 (CCRF-CEM)?
The IC50 was 6.3 µM.

What about the IC50 (HL-60) of the same molecule?
Its IC50 is 6.3 µM.

What about the IC50 (DU-145) of the same molecule?
Its IC50 is 5.06 µM.

What about the IC50 (LNCaP) of the same molecule?
Its IC50 is 5.06 µM.

What about the IC50 (SW480) of the same molecule?
The IC50 was 5.95 µM.

What about the IC50 (Caco-2) of the same molecule?
The IC50 was 5.95 µM.
